Experimental data from ChEMBL document CHEMBL2040796, “Synthesis and biological activity of both enantiomers of kujigamberol isolated from 85-million-years-old Kuji amber” (Bioorg Med Chem Lett, 2012).
Active and inactive are the calls of the source. The rule behind the calls is not given here.

Tests used:
Saccharomyces cerevisiae = test: Antimicrobial activity against Saccharomyces cerevisiae harboring zds1delta, erg3delta pdr1delta pdr3delta mutant assessed as clear growth restored zone at 0.5 to 0.0156 ug/spot; assay type: functional, organism-based
HL-60 = test: Cytotoxicity against human HL60 cells; assay type: functional, cell-based

SMILES | Activity (Saccharomyces cerevisiae) | IC50 (HL-60) [µM] | Activity (HL-60)
Cc1ccc2c(c1CCC(C)C)CCC[C@]2(C)CO [KUJIGAMBEROL] | Active | 24 | 
COC(=O)C1(C)CCCc2ccccc21 (configuration not stated) | inactive |  | inactive
OCC1CCCc2ccccc21 (configuration not stated) | inactive |  | inactive
Cc1ccc2c(c1CCC(C)C)CCCC2CO (configuration not stated) | Active |  | Active
CC1(CO)CCCc2ccccc21 (configuration not stated) | inactive |  | inactive
Cc1ccc2c(c1CCC(C)C)CCC[C@@]2(C)CO | Active |  | Active
